Experimental data: patent US8952024B2, “Herbicidal pyrimidone derivatives” (E I du Pont de Nemours and Company, priority 2009, dated 2015)

How the values were obtained:
Assay in all cases: Test D pre-/postemergence plant response
Type in all cases: in vivo
[1] = tested on: Italian ryegrass (Lolium multiflorum)
Summary of the method: (§1)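 Each species was planted in mixed loam and sand, treated either before emergence or at the 1- to 4-leaf stage, then kept under glass for 14 to 21 days. Plant response was scored by eye from 0 to 100 relative to controls; a dash marks no result.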

[2] = tested on: Surinam grass (Brachiaria decumbens)
Summary of the method: as §1

[3] = tested on: barnyardgrass (Echinochloa crus-galli)
Summary of the method: as §1

[4] = tested on: bluegrass (annual bluegrass, Poa annua)
Summary of the method: as §1

[5] = tested on: dallisgrass (Paspalum dilatatum)
Summary of the method: as §1

[6] = tested on: dayflower (Virginia (VA) dayflower, Commelina virginica)
Summary of the method: as §1

[7] = tested on: guineagrass (Panicum maximum)
Summary of the method: as §1

[8] = tested on: itchgrass (Rottboellia cochinchinensis)
Summary of the method: as §1

[9] = tested on: large crabgrass (Digitaria sanguinalis)
Summary of the method: as §1

[10] = tested on: naked crabgrass (Digitaria nuda)
Summary of the method: as §1

[11] = tested on: quackgrass (Elytrigia repens)
Summary of the method: as §1

[12] = tested on: ragweed (common ragweed, Ambrosia elatior)
Summary of the method: as §1

[13] = tested on: sandbur (southern sandbur, Cenchrus echinatus)
Summary of the method: as §1

[14] = tested on: signalgrass (broadleaf signalgrass, Brachiaria platyphylla)
Summary of the method: as §1

[15] = Postemergence, 16 g ai/ha, scale 0 to 100
[16] = Postemergence, 31 g ai/ha, scale 0 to 100
[17] = Postemergence, 125 g ai/ha, scale 0 to 100 (0 no effect, 100 complete control)
[18] = Postemergence, 62 g ai/ha, scale 0 to 100 (0 no effect, 100 complete control)
[19] = Preemergence, 16 g ai/ha, scale 0 to 100, 0 no effect, 100 complete control
[20] = Preemergence, 31 g ai/ha, scale 0 to 100 (0 no effect, 100 complete control)
[21] = Preemergence, 125 g ai/ha, scale 0 to 100
[22] = Postemergence, 31 g ai/ha, scale 0 to 100 (0 no effect, 100 complete control)
[23] = Preemergence, 62 g ai/ha, scale 0 to 100

Cc1c(F)cccc1-n1c(-c2ccccc2)ncc(C(=O)C2=C(O)CCCC2=O)c1=O [Compound 47, 3-(3-fluoro-2-methylphenyl)-5-[(2-hydroxy-6-oxo-1-cyclohexen-1-yl)carbonyl]-2-phenyl-4(3H)-pyrimidinone]
15: Plant response rating, Dallisgrass [5, 17] | Plant response rating, Dallisgrass [5, 18] | Plant response rating, Dayflower, VA [6, 16] | Plant response rating, Signalgrass [14, 18]
75: Plant response rating, Dallisgrass [5, 21] | Plant response rating, Ragweed [12, 15] | Plant response rating, Ragweed [12, 16]
90: Plant response rating, Sandbur [13, 21] | Plant response rating, Signalgrass [14, 21]
35: Plant response rating, Surinam Grass [2, 15] | Plant response rating, Bluegrass [4, 21] | Plant response rating, Dayflower, VA [6, 19] | Plant response rating, Dayflower, VA [6, 20] | Plant response rating, Crabgrass, Naked [10, 16] | Plant response rating, Crabgrass, Naked [10, 18] | Plant response rating, Sandbur [13, 17]
25: Plant response rating, Dallisgrass [5, 20]
30: Plant response rating, Ryegrass, Italian [1, 17] | Plant response rating, Dayflower, VA [6, 17] | Plant response rating, Guineagrass [7, 17]
5: Plant response rating, Barnyardgrass [3, 23] | Plant response rating, Barnyardgrass [3, 21] | Plant response rating, Dallisgrass [5, 15] | Plant response rating, Itchgrass [8, 16] | Plant response rating, Itchgrass [8, 18] | Plant response rating, Crabgrass, Large [9, 23] | Plant response rating, Quackgrass [11, 17] | Plant response rating, Sandbur [13, 15] | Plant response rating, Sandbur [13, 16] | Plant response rating, Signalgrass [14, 16]
100: Plant response rating, Ragweed [12, 21]
20: Plant response rating, Ryegrass, Italian [1, 18] | Plant response rating, Dayflower, VA [6, 18] | Plant response rating, Guineagrass [7, 16] | Plant response rating, Guineagrass [7, 18] | Plant response rating, Crabgrass, Large [9, 15] | Plant response rating, Crabgrass, Naked [10, 15] | Plant response rating, Sandbur [13, 18] | Plant response rating, Signalgrass [14, 17]
0: Plant response rating, Ryegrass, Italian [1, 15] | Plant response rating, Ryegrass, Italian [1, 19] | Plant response rating, Ryegrass, Italian [1, 20] | Plant response rating, Ryegrass, Italian [1, 21] | Plant response rating, Ryegrass, Italian ([1]; Preemergence, rate not given, scale 0 to 100, 0 no effect, 100 complete control) | Plant response rating, Surinam Grass [2, 19] | Plant response rating, Barnyardgrass [3, 19] | Plant response rating, Barnyardgrass [3, 20] | Plant response rating, Bluegrass [4, 15] | Plant response rating, Bluegrass [4, 22] | Plant response rating, Bluegrass [4, 17] | Plant response rating, Bluegrass [4, 18] | Plant response rating, Bluegrass [4, 19] | Plant response rating, Bluegrass [4, 20] | Plant response rating, Bluegrass [4, 23] | Plant response rating, Dallisgrass [5, 19] | Plant response rating, Guineagrass [7, 19] | Plant response rating, Guineagrass [7, 20] | Plant response rating, Guineagrass [7, 23] | Plant response rating, Guineagrass [7, 21] | Plant response rating, Itchgrass [8, 15] | Plant response rating, Itchgrass [8, 19] | Plant response rating, Itchgrass [8, 20] | Plant response rating, Itchgrass [8, 23] | Plant response rating, Itchgrass [8, 21] | Plant response rating, Crabgrass, Large [9, 19] | Plant response rating, Crabgrass, Large [9, 20] | Plant response rating, Crabgrass, Naked [10, 19] | Plant response rating, Crabgrass, Naked [10, 20] | Plant response rating, Quackgrass [11, 15] | Plant response rating, Quackgrass [11, 16] | Plant response rating, Quackgrass [11, 18] | Plant response rating, Quackgrass [11, 19] | Plant response rating, Quackgrass [11, 20] | Plant response rating, Quackgrass [11, 21] | Plant response rating, Ragweed [12, 19] | Plant response rating, Sandbur [13, 19] | Plant response rating, Sandbur [13, 20] | Plant response rating, Signalgrass [14, 15] | Plant response rating, Signalgrass [14, 19] | Plant response rating, Signalgrass [14, 20]
65: Plant response rating, Dallisgrass [5, 23] | Plant response rating, Crabgrass, Large [9, 17] | Plant response rating, Crabgrass, Naked [10, 17]
50: Plant response rating, Surinam Grass [2, 16] | Plant response rating, Dayflower, VA [6, 23] | Plant response rating, Dayflower, VA [6, 21] | Plant response rating, Crabgrass, Large [9, 16] | Plant response rating, Ragweed [12, 20]
60: Plant response rating, Surinam Grass [2, 18] | Plant response rating, Crabgrass, Large [9, 18] | Plant response rating, Crabgrass, Naked [10, 23]
10: Plant response rating, Ryegrass, Italian [1, 16] | Plant response rating, Dallisgrass [5, 16] | Plant response rating, Dayflower, VA [6, 15] | Plant response rating, Guineagrass [7, 15] | Plant response rating, Itchgrass [8, 17]
70: Plant response rating, Surinam Grass [2, 17] | Plant response rating, Barnyardgrass [3, 15] | Plant response rating, Barnyardgrass [3, 22] | Plant response rating, Barnyardgrass [3, 17] | Plant response rating, Barnyardgrass [3, 18]
98: Plant response rating, Crabgrass, Naked [10, 21]
80: Plant response rating, Ragweed [12, 18]
95: Plant response rating, Crabgrass, Large [9, 21] | Plant response rating, Ragweed [12, 17]

Cc1ccc(F)c(-n2c(-c3ccccc3)ncc(C(=O)C3=C(O)CCCC3=O)c2=O)c1 [Compound 51]
40: Plant response rating, Itchgrass [8, 18]
0: Plant response rating, Ryegrass, Italian [1, 15] | Plant response rating, Ryegrass, Italian [1, 16] | Plant response rating, Ryegrass, Italian [1, 17] | Plant response rating, Ryegrass, Italian [1, 18] | Plant response rating, Ryegrass, Italian [1, 19] | Plant response rating, Ryegrass, Italian [1, 20] | Plant response rating, Ryegrass, Italian [1, 21] | Plant response rating, Barnyardgrass [3, 19] | Plant response rating, Barnyardgrass [3, 20] | Plant response rating, Barnyardgrass [3, 23] | Plant response rating, Bluegrass [4, 15] | Plant response rating, Bluegrass [4, 22] | Plant response rating, Bluegrass [4, 17] | Plant response rating, Bluegrass [4, 18] | Plant response rating, Bluegrass [4, 19] | Plant response rating, Bluegrass [4, 20] | Plant response rating, Bluegrass [4, 23] | Plant response rating, Bluegrass [4, 21] | Plant response rating, Dallisgrass [5, 19] | Plant response rating, Dayflower, VA [6, 19] | Plant response rating, Dayflower, VA [6, 20] | Plant response rating, Dayflower, VA [6, 21] | Plant response rating, Guineagrass [7, 19] | Plant response rating, Guineagrass [7, 20] | Plant response rating, Guineagrass [7, 23] | Plant response rating, Itchgrass [8, 15] | Plant response rating, Itchgrass [8, 19] | Plant response rating, Itchgrass [8, 20] | Plant response rating, Itchgrass [8, 23] | Plant response rating, Itchgrass [8, 21] | Plant response rating, Crabgrass, Large [9, 19] | Plant response rating, Crabgrass, Naked [10, 19] | Plant response rating, Crabgrass, Naked [10, 20] | Plant response rating, Crabgrass, Naked [10, 23] | Plant response rating, Crabgrass, Naked [10, 21] | Plant response rating, Quackgrass [11, 15] | Plant response rating, Quackgrass [11, 16] | Plant response rating, Quackgrass [11, 17] | Plant response rating, Quackgrass [11, 18] | Plant response rating, Quackgrass [11, 19] | Plant response rating, Quackgrass [11, 20] | Plant response rating, Quackgrass [11, 21] | Plant response rating, Sandbur [13, 19] | Plant response rating, Sandbur [13, 20] | Plant response rating, Signalgrass [14, 19] | Plant response rating, Signalgrass [14, 20]
10: Plant response rating, Barnyardgrass [3, 21] | Plant response rating, Dallisgrass [5, 20] | Plant response rating, Dallisgrass [5, 23] | Plant response rating, Dayflower, VA [6, 15] | Plant response rating, Dayflower, VA [6, 16] | Plant response rating, Dayflower, VA [6, 18] | Plant response rating, Signalgrass [14, 21]
35: Plant response rating, Crabgrass, Large [9, 16] | Plant response rating, Crabgrass, Large [9, 17] | Plant response rating, Crabgrass, Large [9, 18] | Plant response rating, Crabgrass, Naked [10, 15] | Plant response rating, Ragweed [12, 19] | Plant response rating, Signalgrass [14, 16]
80: Plant response rating, Surinam Grass [2, 17] | Plant response rating, Itchgrass [8, 17] | Plant response rating, Ragweed [12, 18]
30: Plant response rating, Dallisgrass [5, 18] | Plant response rating, Guineagrass [7, 16] | Plant response rating, Guineagrass [7, 18]
50: Plant response rating, Surinam Grass [2, 15] | Plant response rating, Guineagrass [7, 17] | Plant response rating, Crabgrass, Naked [10, 16] | Plant response rating, Ragweed [12, 20] | Plant response rating, Signalgrass [14, 17] | Plant response rating, Signalgrass [14, 18]
75: Plant response rating, Guineagrass [7, 21] | Plant response rating, Ragweed [12, 16] | Plant response rating, Sandbur [13, 21]
98: Plant response rating, Surinam Grass [2, 20]
95: Plant response rating, Ragweed [12, 21]
20: Plant response rating, Dallisgrass [5, 15] | Plant response rating, Dallisgrass [5, 16] | Plant response rating, Dayflower, VA [6, 17] | Plant response rating, Guineagrass [7, 15] | Plant response rating, Itchgrass [8, 16]
60: Plant response rating, Surinam Grass [2, 16] | Plant response rating, Ragweed [12, 15] | Plant response rating, Sandbur [13, 17]
25: Plant response rating, Crabgrass, Large [9, 15] | Plant response rating, Sandbur [13, 16] | Plant response rating, Sandbur [13, 18]
5: Plant response rating, Crabgrass, Large [9, 20] | Plant response rating, Crabgrass, Large [9, 23] | Plant response rating, Crabgrass, Large [9, 21] | Plant response rating, Sandbur [13, 15] | Plant response rating, Signalgrass [14, 15]
65: Plant response rating, Barnyardgrass [3, 15] | Plant response rating, Crabgrass, Naked [10, 17]
85: Plant response rating, Ragweed [12, 17]
70: Plant response rating, Surinam Grass [2, 18] | Plant response rating, Barnyardgrass [3, 22] | Plant response rating, Barnyardgrass [3, 17] | Plant response rating, Barnyardgrass [3, 18] | Plant response rating, Dallisgrass [5, 17]
90: Plant response rating, Surinam Grass [2, 19] | Plant response rating, Dallisgrass [5, 21]
